# Test results taken from paper PMC9958325 (Nature Communications, 2023).
# Where “and” joins values, the source holds several entries; their conditions need not be identical. Equal entries are not always repeated. Where two headings read alike, the source gives them in different places.
# Legend:
# [1] = tested on: SARS-CoV-2^WK521 in HeLa-ACE2-TMPRSS2 cells; assay: Antiviral assay, HeLa-ACE2-TMPRSS2 cells, WK521; assay type: cell-based
# [2] = tested on: SARS-CoV-2^WK521 in A549-ACE2-TMPRSS2 cells; assay: Antiviral assay, A549-ACE2-TMPRSS2 cells, WK521; assay type: cell-based
# HeLa-ACE2-TMPRSS2 cells = assay: Intracellular concentrations of compounds (LC/MS), HeLa-ACE2-TMPRSS2 cells; details: 6 h; for Intracellular amount, individual: listed as TKB-0245
# [3] = mouse, in vivo
# [4] = Pharmacokinetic study in PXB-mice (human liver-chimeric); details: for Vdss / AUC: mean ± S.E.; for AUC: n=3; for Plasma concentration: individual mice
structure (smiles),measurement,setting,value
CC(C)(C)[C@H](NC(=O)C(F)(F)F)C(=O)N1C[C@H]2[C@@H]([C@H]1C(=O)N[C@@H](C[C@@H]1CCNC1=O)C(=O)c1nc3c(F)cccc3s1)C2(C)C [TKB245],EC50,"[1]; SARS-CoV-2^WK521, read-out: EC50, HeLa-ACE2-TMPRSS2",21 ± 8 nM
same,EC50,"[1]; source data, listed as TKB0245, read-out: EC50, HeLa-AEC2-TMPRSS2, individual assays",14 nM and 30 nM and 20 nM
same,EC50,"[1]; source data, read-out: EC50, HeLa-AEC2-TMPRSS2, Average",21.3 nM
same,EC50,"[2]; SARS-CoV-2^WK521, read-out: EC50, A549-ACE2-TMPRSS2",2.7 ± 0.2 nM
same,EC50,"[2]; source data, listed as TKB0245, read-out: EC50, A549-AEC2-TMPRSS2, individual assays",3 nM and 2.47 nM and 2.78 nM
same,EC50,"[2]; source data, read-out: EC50, A549-AEC2-TMPRSS2, Average",2.75 nM
same,"Intracellular amount, avg","HeLa-ACE2-TMPRSS2 cells; Hela ACE2 TMPRSS2, 10uM",0.603 pmol(total)
same,"Intracellular amount, individual","HeLa-ACE2-TMPRSS2 cells; Hela ACE2 TMPRSS2, 10uM",0.6360 pmol(total) and 0.5701 pmol(total)
same,"Intracellular amount, avg","HeLa-ACE2-TMPRSS2 cells; Hela ACE2 TMPRSS2, 50uM",4.167 pmol(total)
same,"Intracellular amount, individual","HeLa-ACE2-TMPRSS2 cells; Hela ACE2 TMPRSS2, 50uM",4.585 pmol(total) and 3.749 pmol(total)
same,"Intracellular amount, avg","HeLa-ACE2-TMPRSS2 cells; Hela ACE2 TMPRSS2, 100uM",8.85 pmol(total)
same,"Intracellular amount, individual","HeLa-ACE2-TMPRSS2 cells; Hela ACE2 TMPRSS2, 100uM",8.312 pmol(total) and 9.388 pmol(total)
same,Body weights and survival rates,[3],no significant changes were recorded
same,Cmax,"[4]; N = 3 male PXB-mouse, 10 mg/kg p.o.","1,901¶ ng/mL"
same,T1/2,"[4]; N = 3 male PXB-mouse, 10 mg/kg, oral (p.o.) value for TKB245",3.82¶ h
same,t1/2,"[4]; PXB-mice, 10 mg/kg i.v.",1.25 h
same,Vdss,"[4]; PXB-mice, 10 mg/kg i.v.",0.0302 ± 0.00381 L/kg
same,AUC,"[4]; PXB-mice, 10 mg/kg i.v.",10700 ± 540 ng·h/mL
same,Vdss,"[4]; PXB-mice, 10 mg/kg p.o.",0.1941 ± 0.03543 L/kg
same,AUC,"[4]; PXB-mice, 10 mg/kg p.o.",5120 ± 430 ng·h/mL
same,Plasma concentration,"[4]; PXB-mice, i.v. 10 mg/kg, 10 min",8436.5 ng/mL
same,Plasma concentration,"[4]; PXB-mice, i.v. 10 mg/kg, 10 min, listed as TKB0245, 10 mg/kg",8433.5 ng/mL and 10627.1 ng/mL
same,Plasma concentration,"[4]; PXB-mice, i.v. 10 mg/kg, 0.17 hr, listed as TKB0245, 10 mg/kg",8440 ng/mL and 8430 ng/mL and 10630 ng/mL
same,Plasma concentration,"[4]; PXB-mice, i.v. 10 mg/kg, 60 min, listed as TKB0245, 10 mg/kg",2816 ng/mL and 2507.3 ng/mL and 3230 ng/mL
same,Plasma concentration,"[4]; PXB-mice, i.v. 10 mg/kg, 1 hr, listed as TKB0245, 10 mg/kg",2820 ng/mL and 2510 ng/mL and 3230 ng/mL
same,Plasma concentration,"[4]; PXB-mice, i.v. 10 mg/kg, 240 min, listed as TKB0245, 10 mg/kg",47 ng/mL and 52.3 ng/mL and 95 ng/mL
same,Plasma concentration,"[4]; PXB-mice, i.v. 10 mg/kg, 4 hr, listed as TKB0245, 10 mg/kg",0.05 µg/ml (2×) and 0.09 µg/ml
same,Plasma concentration,"[4]; PXB-mice, i.v. 10 mg/kg, 480 min, listed as TKB0245, 10 mg/kg",10.4 ng/mL and 14.8 ng/mL and 20 ng/mL
same,Plasma concentration,"[4]; PXB-mice, i.v. 10 mg/kg, 8 hr, listed as TKB0245, 10 mg/kg",0.01 µg/ml (2×) and 0.02 µg/ml
same,Plasma concentration,"[4]; PXB-mice, i.v. 10 mg/kg, 1440 min, listed as TKB0245, 10 mg/kg",13.6 ng/mL and 11.6 ng/mL and 12.4 ng/mL
same,Plasma concentration,"[4]; PXB-mice, i.v. 10 mg/kg, 24 hr",10 ng/mL
same,Plasma concentration,"[4]; PXB-mice, p.o. 10 mg/kg, 10 min, listed as TKB0245, 10 mg/kg",914.5 ng/mL and 1553.1 ng/mL and 2872.3 ng/mL
same,Plasma concentration,"[4]; PXB-mice, p.o. 10 mg/kg, 0.17 hr, listed as TKB0245, 10 mg/kg",910 ng/mL and 1550 ng/mL and 2870 ng/mL
same,Plasma concentration,"[4]; PXB-mice, p.o. 10 mg/kg, 60 min, listed as TKB0245, 10 mg/kg",1278.1 ng/mL and 1343.7 ng/mL and 1794.3 ng/mL
same,Plasma concentration,"[4]; PXB-mice, p.o. 10 mg/kg, 1 hr, listed as TKB0245, 10 mg/kg",1280 ng/mL and 1340 ng/mL and 1790 ng/mL
same,Plasma concentration,"[4]; PXB-mice, p.o. 10 mg/kg, 240 min, listed as TKB0245, 10 mg/kg",152.9 ng/mL and 98.8 ng/mL and 128.8 ng/mL
same,Plasma concentration,"[4]; PXB-mice, p.o. 10 mg/kg, 4 hr, listed as TKB0245, 10 mg/kg",150 ng/mL and 100 ng/mL and 130 ng/mL
same,Plasma concentration,"[4]; PXB-mice, p.o. 10 mg/kg, 480 min, listed as TKB0245, 10 mg/kg",41.6 ng/mL and 34.4 ng/mL and 32.8 ng/mL
same,Plasma concentration,"[4]; PXB-mice, p.o. 10 mg/kg, 8 hr, listed as TKB0245, 10 mg/kg",0.04 µg/ml and 0.03 µg/ml (2×)
same,Plasma concentration,"[4]; PXB-mice, p.o. 10 mg/kg, 1440 min, listed as TKB0245, 10 mg/kg",26 ng/mL and 21.9 ng/mL and 27.9 ng/mL
